Experiments:
Format in all cases: in vivo
Abutilon theophrasti [1] = test: Foliar treatment herbicidal activity test; details: 2 weeks, scale 0 to 100 (complete destruction)
Method: (§1) A compound fertilizer for horticulture (N:P:K=11:10:11) was mixed with sterilized sandy soil (pH 6.1, organic substance 1.0%, clay 21%, silt 17%, sand 52%), 1 g per each pot (350 cm^2). The soil was filled in a square plastic pot, and corn, Poaceae plants including Panicum dichotomiflorum and Digitaria ciliaris, broadleaf plants including Solanum nigrum, Aeschynomene indica, Abutilon theophrasti and cocklebur, or convolvulus rhizome were sown and covered with soil. Soil treatment was carried out by spraying a test formulation 1 day after the sowing, and foliar treatment, 8 to 12 days after the sowing. The test formulation was prepared by dissolving of a test compound in a mixture of 5 wt % of acetone and 1 wt % of an emulsifier, and diluting with water to prepare a wettable powder. 2000 L of the test formulation was sprayed per hectare. The amount of the active compound was adjusted to a desired quantity.
(§2) Following the treatment, the plants were grown for 2 weeks under a greenhouse condition (25-35° C. during the day and 20-25° C. at night, 14 hour light cycle). Herbicidal activity was evaluated in comparison to a non-treated control group according to the following standard: for weeds, 0 (no herbicidal effect) to 100 (complete destruction); and for crops 0 (harmless) to […] (complete destruction).

Aeschynomene indica [2] = test: Foliar treatment herbicidal activity test; details: 2 weeks, scale 0 to 100 (complete destruction)
Method: as §1, §2

Cocklebur = test: Foliar treatment herbicidal activity test; details: for Herbicidal activity, Cocklebur: foliar treatment, 8 g a.i./ha, 2 weeks
Method: as §1, §2

Digitaria ciliaris [3] = test: Foliar treatment herbicidal activity test; details: 2 weeks; for pest or weed control at 8 g/ha / pest or weed control at 16 g/ha: Digitaria ciliaris, 336 h; for pest or weed control at 16 g/ha: Table 6 (III), 16 g a.i./ha
Method: as §1, §2

Echinochloa crus-galli = test: Foliar treatment herbicidal activity test; details: 2 weeks; for pest or weed control at 8 g/ha / pest or weed control at 16 g/ha: Echinochloa crus-galli, 336 h; for pest or weed control at 16 g/ha: Table 6 (III), 16 g a.i./ha
Method: as §1, §2

Panicum dichotomiflorum = test: Foliar treatment herbicidal activity test; details: 2 weeks, scale 0 to 100 (complete destruction)
Method: as §1, §2

Solanum nigrum [4] = test: Foliar treatment herbicidal activity test; details: 2 weeks, scale 0 to 100 (complete destruction)
Method: as §1, §2

Sorghum bicolor [5] = test: Foliar treatment herbicidal activity test; details: Table 4 (I), 8 g a.i./ha, 2 weeks, scale 0 to 100 (complete destruction)
Method: as §1, §2

Cyperus serotinus = test: Foliar treatment herbicidal activity test; details: Table 4 (I), 8 g a.i./ha, 2 weeks, scale 0 to 100 (complete destruction)
Corn = test: Soil treatment test, crop harm; details: Table 7, 32 g a.i./ha, 2 weeks, crops scale 0 (harmless) to 10 (complete destruction)
Method: as §1, §2

Wheat = test: Soil treatment test, crop harm; details: Table 7, 32 g a.i./ha, 2 weeks, crops scale 0 (harmless) to 10 (complete destruction)
Abutilon theophrasti [6] = test: Soil treatment herbicidal activity test; details: Table 7, 32 g a.i./ha, 2 weeks, scale 0 to 100 (complete destruction)
Method: as §1, §2

Aeschynomene indica [7] = test: Soil treatment herbicidal activity test; details: Table 7, 32 g a.i./ha, 2 weeks, scale 0 to 100 (complete destruction)
Method: as §1, §2

Digitaria ciliaris [8] = test: Soil treatment herbicidal activity test; details: Table 7, 32 g a.i./ha, 2 weeks, scale 0 to 100 (complete destruction)
Method: as §1, §2

Solanum nigrum [9] = test: Soil treatment herbicidal activity test; details: Table 7, 32 g a.i./ha, 2 weeks, scale 0 to 100 (complete destruction)
Method: as §1, §2

Sorghum bicolor [10] = test: Soil treatment herbicidal activity test; details: Table 7, 32 g a.i./ha, 2 weeks, scale 0 to 100 (complete destruction)
Method: as §1, §2

monocot weeds = test: Foliar treatment herbicidal activity test (summary in text)
Method: as §1, §2

[11] = Table 3, scale 0 (no herbicidal effect) to 100 (complete destruction)
[12] = Table 4 (I), scale 0 to 100 (complete destruction)
[13] = Table 3, 8 g a.i./ha, scale 0 (no herbicidal effect) to 100 (complete destruction)
[14] = Table 4 (I), 8 g a.i./ha, scale 0 to 100 (complete destruction)
[15] = Table 5 (II), 8 g a.i./ha, scale 0 to 100 (complete destruction)
[16] = scale 0 to 100 (complete destruction)

## COC(=O)CCNC(=O)C(C)Oc1cc(-n2c(=O)cc(C(F)(F)F)n(C)c2=O)c(F)cc1Cl (centres unmarked) [Compound No. 1, 3-[{2-[2-chloro-5-(3,6-dihydro-3-methyl-2,6-dioxo-4-trifluoromethyl-1(2H)-pyrimidinyl)-4-fluorophenoxy]-1-oxopropyl}amino]propionic acid methyl ester]
Abutilon theophrasti [1]; Table 4 (I), 8 g a.i./ha
  Herbicidal activity, Abutilon theophrasti: 100
Abutilon theophrasti [1]; Table 5 (II), 8 g a.i./ha
  Herbicidal activity, Abutilon theophrasti: 100
Aeschynomene indica [2]; Table 4 (I), 8 g a.i./ha
  Herbicidal activity, Aeschynomene indica: 100
Aeschynomene indica [2]; Table 5 (II), 8 g a.i./ha
  Herbicidal activity, Aeschynomene indica: 100
Cocklebur; [11]
  Herbicidal activity, Cocklebur: 100
Cocklebur; [12]
  Herbicidal activity, Cocklebur: 100
Digitaria ciliaris [3]; [13]
  pest or weed control at 8 g/ha: 100%
Digitaria ciliaris [3]; [14]
  Herbicidal activity, Digitaria ciliaris: 100
Digitaria ciliaris [3]; [15]
  Herbicidal activity, Digitaria ciliaris: 100
Echinochloa crus-galli; [13]
  pest or weed control at 8 g/ha: 100%
Echinochloa crus-galli; [15]
  Herbicidal activity, Echinochloa crus-galli: 100
Panicum dichotomiflorum; Table 5 (II), 8 g a.i./ha
  Herbicidal activity, Panicum dichotomiflorum: 100
Solanum nigrum [4]; Table 5 (II), 8 g a.i./ha
  Herbicidal activity, Solanum nigrum: 100
Sorghum bicolor [5]
  Herbicidal activity, Sorghum bicolor: 97
Cyperus serotinus
  Herbicidal activity, Cyperus serotinus: 100
Corn
  Crop harm, Corn: 2
Wheat
  Crop harm, Wheat: 3
Abutilon theophrasti [6]
  Herbicidal activity, Abutilon theophrasti: 100
Aeschynomene indica [7]
  Herbicidal activity, Aeschynomene indica: 100
Digitaria ciliaris [8]
  Herbicidal activity, Digitaria ciliaris: 100
Solanum nigrum [9]
  Herbicidal activity, Solanum nigrum: 100
Sorghum bicolor [10]
  Herbicidal activity, Sorghum bicolor: 100

## COC(=O)COC(=O)CCNC(=O)C(C)Oc1cc(-n2c(=O)cc(C(F)(F)F)n(C)c2=O)c(F)cc1Cl (centres unmarked) [Compound No. 22, 3-[{2-[2-chloro-5-(3,6-dihydro-3-methyl-2,6-dioxo-4-trifluoromethyl-1(2H)-pyrimidinyl)-4-fluorophenoxy]-1-oxopropyl}amino]propionyloxy acetic acid methyl ester]
Abutilon theophrasti [1]; Table 6 (III), 16 g a.i./ha
  Herbicidal activity, Abutilon theophrasti: 100
Aeschynomene indica [2]; Table 6 (III), 16 g a.i./ha
  Herbicidal activity, Aeschynomene indica: 100
Digitaria ciliaris [3]; [16]
  pest or weed control at 16 g/ha: 85%
Echinochloa crus-galli; [16]
  pest or weed control at 16 g/ha: 100%
Panicum dichotomiflorum; Table 6 (III), 16 g a.i./ha
  Herbicidal activity, Panicum dichotomiflorum: 100
Solanum nigrum [4]; Table 6 (III), 16 g a.i./ha
  Herbicidal activity, Solanum nigrum: 100

## CCCCOC(=O)CCNC(=O)C(C)Oc1cc(-n2c(=O)cc(C(F)(F)F)n(C)c2=O)c(F)cc1Cl (centres unmarked) [Compound No. 23, 3-[{2-[2-chloro-5-(3,6-dihydro-3-methyl-2,6-dioxo-4-trifluoromethyl-1(2H)-pyrimidinyl)-4-fluorophenoxy]-1-oxopropyl}amino]propionic acid n-butyl ester]
Abutilon theophrasti [1]; Table 6 (III), 16 g a.i./ha
  Herbicidal activity, Abutilon theophrasti: 100
Aeschynomene indica [2]; Table 6 (III), 16 g a.i./ha
  Herbicidal activity, Aeschynomene indica: 100
Digitaria ciliaris [3]; [16]
  pest or weed control at 16 g/ha: 100%
Echinochloa crus-galli; [16]
  pest or weed control at 16 g/ha: 100%
Panicum dichotomiflorum; Table 6 (III), 16 g a.i./ha
  Herbicidal activity, Panicum dichotomiflorum: 100
Solanum nigrum [4]; Table 6 (III), 16 g a.i./ha
  Herbicidal activity, Solanum nigrum: 100

## CCOC(=O)CCNC(=O)C(C)Oc1cc(-n2c(=O)cc(C(F)(F)F)n(C)c2=O)c(F)cc1Cl (centres unmarked) [Compound No. 24, 3-[{2-[2-chloro-5-(3,6-dihydro-3-methyl-2,6-dioxo-4-trifluoromethyl-1(2H)-pyrimidinyl)-4-fluorophenoxy]-1-oxopropyl}amino]propionic acid ethyl ester]
Abutilon theophrasti [1]; Table 5 (II), 8 g a.i./ha
  Herbicidal activity, Abutilon theophrasti: 100
Aeschynomene indica [2]; Table 5 (II), 8 g a.i./ha
  Herbicidal activity, Aeschynomene indica: 100
Digitaria ciliaris [3]; [15]
  pest or weed control at 8 g/ha: 99%
Echinochloa crus-galli; [15]
  pest or weed control at 8 g/ha: 98%
Panicum dichotomiflorum; Table 5 (II), 8 g a.i./ha
  Herbicidal activity, Panicum dichotomiflorum: 99
Solanum nigrum [4]; Table 5 (II), 8 g a.i./ha
  Herbicidal activity, Solanum nigrum: 100

## C=CCOC(=O)CCNC(=O)C(C)Oc1cc(-n2c(=O)cc(C(F)(F)F)n(C)c2=O)c(F)cc1Cl (centres unmarked) [Compound No. 25, 3-[{2-[2-chloro-5-(3,6-dihydro-3-methyl-2,6-dioxo-4-trifluoromethyl-1(2H)-pyrimidinyl)-4-fluorophenoxy]-1-oxopropyl}amino]propionic acid allyl ester]
Abutilon theophrasti [1]; Table 6 (III), 16 g a.i./ha
  Herbicidal activity, Abutilon theophrasti: 100
Aeschynomene indica [2]; Table 6 (III), 16 g a.i./ha
  Herbicidal activity, Aeschynomene indica: 100
Digitaria ciliaris [3]; [16]
  pest or weed control at 16 g/ha: 100%
Echinochloa crus-galli; [16]
  pest or weed control at 16 g/ha: 90%
Panicum dichotomiflorum; Table 6 (III), 16 g a.i./ha
  Herbicidal activity, Panicum dichotomiflorum: 96
Solanum nigrum [4]; Table 6 (III), 16 g a.i./ha
  Herbicidal activity, Solanum nigrum: 100

## C#CCOC(=O)CCNC(=O)C(C)Oc1cc(-n2c(=O)cc(C(F)(F)F)n(C)c2=O)c(F)cc1Cl (centres unmarked) [Compound No. 26, 3-[{2-[2-chloro-5-(3,6-dihydro-3-methyl-2,6-dioxo-4-trifluoromethyl-1(2H)-pyrimidinyl)-4-fluorophenoxy]-1-oxopropyl}amino]propionic acid propargyl ester]
Abutilon theophrasti [1]; Table 6 (III), 16 g a.i./ha
  Herbicidal activity, Abutilon theophrasti: 100
Aeschynomene indica [2]; Table 6 (III), 16 g a.i./ha
  Herbicidal activity, Aeschynomene indica: 100
Digitaria ciliaris [3]; [16]
  pest or weed control at 16 g/ha: 95%
Echinochloa crus-galli; [16]
  pest or weed control at 16 g/ha: 90%
Panicum dichotomiflorum; Table 6 (III), 16 g a.i./ha
  Herbicidal activity, Panicum dichotomiflorum: 90
Solanum nigrum [4]; Table 6 (III), 16 g a.i./ha
  Herbicidal activity, Solanum nigrum: 100

## COC(=O)CCNC(=O)C(C)Sc1cc(-n2c(=O)cc(C(F)(F)F)n(C)c2=O)c(F)cc1Cl (centres unmarked) [Compound No. 36, 3-[{2-[2-chloro-5-(3,6-dihydro-3-methyl-2,6-dioxo-4-trifluoromethyl-1(2H)-pyrimidinyl)-4-fluorophenylthio]-1-oxopropyl}amino]propionic acid methyl ester]
Abutilon theophrasti [1]; Table 4 (I), 8 g a.i./ha
  Herbicidal activity, Abutilon theophrasti: 100
Aeschynomene indica [2]; Table 4 (I), 8 g a.i./ha
  Herbicidal activity, Aeschynomene indica: 100
Cocklebur; [12]
  Herbicidal activity, Cocklebur: 100
Digitaria ciliaris [3]; [14]
  pest or weed control at 8 g/ha: 100%
Sorghum bicolor [5]
  Herbicidal activity, Sorghum bicolor: 100
Cyperus serotinus
  Herbicidal activity, Cyperus serotinus: 100
Corn
  Crop harm, Corn: 0
Wheat
  Crop harm, Wheat: 0
Abutilon theophrasti [6]
  Herbicidal activity, Abutilon theophrasti: 100
Aeschynomene indica [7]
  Herbicidal activity, Aeschynomene indica: 100
Digitaria ciliaris [8]
  Herbicidal activity, Digitaria ciliaris: 100
Solanum nigrum [9]
  Herbicidal activity, Solanum nigrum: 100
Sorghum bicolor [10]
  Herbicidal activity, Sorghum bicolor: 100

## COC(=O)CNC(=O)C(C)Oc1cc(-n2c(=O)cc(C(F)(F)F)n(C)c2=O)c(F)cc1Cl (centres unmarked) [compound 1]
Cocklebur
  Herbicidal activity against cocklebur (in words): imperfect herbicidal activity
Cocklebur; [11]
  Herbicidal activity, Cocklebur: 98
Digitaria ciliaris [3]; [13]
  pest or weed control at 8 g/ha: 30%
Echinochloa crus-galli; [13]
  pest or weed control at 8 g/ha: 55%
Monocot weeds
  Herbicidal activity against monocot weeds (in words): very low herbicidal activity

## COC(=O)C(C)NC(=O)C(C)Oc1cc(-n2c(=O)cc(C(F)(F)F)n(C)c2=O)c(F)cc1Cl (centres unmarked) [compound 2]
Cocklebur
  Herbicidal activity against cocklebur (in words): imperfect herbicidal activity
Cocklebur; [11]
  Herbicidal activity, Cocklebur: 70
Digitaria ciliaris [3]; [13]
  pest or weed control at 8 g/ha: 25%
Echinochloa crus-galli; [13]
  pest or weed control at 8 g/ha: 65%
Monocot weeds
  Herbicidal activity against monocot weeds (in words): very low herbicidal activity

## COC(=O)CONC(=O)C(C)Oc1cc(-n2c(=O)cc(C(F)(F)F)n(C)c2=O)c(F)cc1Cl (centres unmarked) [compound 3]
Cocklebur
  Herbicidal activity against cocklebur (in words): imperfect herbicidal activity
Cocklebur; [11]
  Herbicidal activity, Cocklebur: 95
Digitaria ciliaris [3]; [13]
  pest or weed control at 8 g/ha: 10%
Echinochloa crus-galli; [13]
  pest or weed control at 8 g/ha: 30%
Monocot weeds
  Herbicidal activity against monocot weeds (in words): very low herbicidal activity

— patent publication US8193198B2, “Uracil compounds and a herbicide comprising the same” (Korea Research Institute of Chemical Technology, priority 2008, dated 2012)
